According to patent US20240390329A1, “APPLICATION OF CHANNEL BLOCKER IN PREPARATION OF DRUGS FOR TREATING AND/OR PREVENTING LIVER FIBROSIS” (Affiliated Hospital of Zunyi Medical University, priority 2023, published 2024):
“Also recorded” adds a separate entry of the source.

How the values were obtained:
[1] = Drug group: healthy mice given PHT sodium alone, compared with normal control group; format: in vivo, male C57 mice
[2] = test system: hepatic stellate cells (HSCs); assay: CCK-8 detection of the effect of PHT sodium on proliferation of HSCs; format: cell-based; conditions: CCK-8, 48 hours; read-out: IC50 value on HSC proliferation
HSCs induced by TGF-β1 = assay: CCK-8 detection of the effect of PHT sodium on TGF-β1 induced proliferation of HSCs; format: cell-based; conditions: PHT sodium 200 μM, p<0.05
[3] = test system: HSCs (α-SMA, LC3, p62 expression); assay: Western blotting of α-SMA, LC3 and p62 in HSCs stimulated with TGF-β1; format: cell-based; conditions: TGF-β1+PHT vs TGF-β1 alone; PHT sodium 200 μM; p<0.05
Procedure: Extraction of cell protein: the cells that need to be extracted protein are removed from the incubator, rinsed twice with the prepared PBS solution, placed on a clean filter paper, and the remaining PBS is dried. Then, a certain amount of radio immunoprecipitation assay (RIPA) protein lysis solution is added according to the growth of the cells, and the protein is lysed for about 30 minutes. Then, the lysed protein stock solution is scraped with a scraper, placed in prepared EP tubes, and then placed in a high-speed centrifuge and centrifuged at 12,000 rpm at 4° C. for 30 minutes. After centrifugation is completed, the supernatant is taken for subsequent protein quantification.

[4] = test system: carbon tetrachloride (CCl4) induced liver fibrosis; assay: Mouse model of liver fibrosis induced by CCl4, treatment group given PHT sodium
[5] = drug group vs normal control group
[6] = treatment group vs model group, p<0.05

- liver lobules (HE, Masson's trichrome, picric-Sirius red staining) ([1]; drug group): intact and structurally normal
- appearance of the liver [1, 5]: no significant difference
- general state of mice (fur, activity) ([1]; drug group, food and water intake normal): smooth fur and active activity
SMILES: O=C1NC(=O)C(c2ccccc2)(c2ccccc2)N1 [PHT sodium, phenytoin sodium]
- transaminase (ALT, AST) in serum [1, 5]: no significant difference
- positive expression of α-SMA in liver sections (immunohistochemistry) ([1]; drug group, at edges of hepatic portal vein and central vein): only a small amount of positive expression
- IC50 [2]: 234 µM
- proliferation of HSCs promoted by TGF-β1 (HSCs induced by TGF-β1): inhibited
- expression of autophagy substrate protein p62 in HSCs [3]: significantly increased
- expression of autophagy-related protein LC3 in HSCs [3]: significantly decreased
- expression of α-SMA in HSCs [3]: significantly lower; also recorded: decreased
- collagen content in the liver of mice ([4]; staining of liver sections): reduce
- liver texture (appearance of the liver, naked eye) ([4]; treatment group vs model group): softer than that of the model group
- activity of the mice ([4]; treatment group vs model group, PHT sodium 1 mM, 10 mL/kg i.p. once a day): significantly increased
- degree of liver fibrosis (HE, Masson's trichrome, picric-Sirius red staining) ([4]; treatment group vs model group, liver sections): reduced
- expression of LC3 in liver tissue (Western blotting) [4, 6]: decreased
- expression of p62 in liver tissue (Western blotting) [4, 6]: increased
- expression of α-SMA in liver tissue (Western blotting) [4, 6]: decreased
- positive expression of α-SMA in liver sections (immunohistochemistry) [4, 6]: decreased compared with the model group
- transaminase (ALT, AST) in serum [4, 6]: lower than that in the model group
